Reference: patent publication US20240261271A1, “APPLICATION OF HYDRONIDONE IN PREPARATION OF DRUG FOR TREATING OR PREVENTING CHRONIC HEPATITIS B WITH LIVER FIBROSIS” (priority 2021, published 2024)
Values joined by “and” are separate entries in the source; they are usually repeats but may differ in a detail not shown here. Equal values may be shown once.

System: chronic hepatitis B with hepatic fibrosis
Test: Phase II clinical study: hepatic fibrosis Ishak score by liver biopsy, before and after 52 weeks of treatment on entecavir basic treatment
Type: in vivo, human
Conditions: for Rate difference (C-D) % and 95% CI, Ishak score decreased by ≥1: 180 mg group minus 270 mg group; for Hepatic fibrosis Ishak score, Mean (SD) / Hepatic fibrosis Ishak score, Median / Ishak score 0 point, n(%) / Ishak score 1 point, n(%) / Ishak score 2 points, n(%) / Ishak score 3 points, n(%) / Ishak score 4 points, n(%) / Ishak score 5 points, n(%) / Ishak score 6 points, n(%) / Progressive Ishak score (increases by ≥1 compared with the baseline) / Reversed Ishak score (decreases by ≥1 point compared with the baseline) / Stable Ishak score (unchanged compared with the baseline): 52 weeks of treatment
Description: This is a randomized, double-blind, placebo-controlled, multicenter, and dose-finding phase II clinical study with foundational treatment. In the clinical trial, three different dose test groups and a placebo control group were set on the basis of the entecavir capsule antiviral treatment, and the planned sample amount of each group was 60 cases, totaling 240 cases. The three dose test groups were 180 mg group, 270 mg group, and 360 mg group, respectively. […]

[1] = 180 mg group, FAS, 52 weeks of treatment vs baseline, all subjects
[2] = 180 mg group, FAS, all subjects
[3] = 180 mg group, FAS, baseline Ishak score ≥3
[4] = 180 mg group, FAS, screening period-follow-up 15 (52 weeks), baseline Ishak score ≥3
[5] = 180 mg group, PPS, 52 weeks of treatment vs baseline, all subjects
[6] = 180 mg group, PPS, all subjects
[7] = 180 mg group, PPS, baseline Ishak score ≥3
[8] = 180 mg group, PPS, screening period-follow-up 15 (52 weeks), baseline Ishak score ≥3
[9] = 270 mg group, FAS, 52 weeks of treatment vs baseline, all subjects
[10] = 270 mg group, FAS, all subjects
[11] = 270 mg group, FAS, baseline Ishak score ≥3
[12] = 270 mg group, FAS, screening period-follow-up 15 (52 weeks), baseline Ishak score ≥3
[13] = 270 mg group, PPS, 52 weeks of treatment vs baseline, all subjects
[14] = 270 mg group, PPS, all subjects
[15] = 270 mg group, PPS, baseline Ishak score ≥3

With `Cc1ccc(=O)n(-c2ccc(O)cc2)c1` [hydronidone] the “Rate difference (C-D) % and 95% CI, Ishak score decreased by ≥1” value (FAS, 52 weeks, all subjects) was −15.62(−35.03, 5.65) %, the “Rate difference (C-D) % and 95% CI, Ishak score decreased by ≥1” value (FAS, 52 weeks, baseline Ishak score ≥3) was −10.12(−34.40, 15.62) % and the “Rate difference (C-D) % and 95% CI, Ishak score decreased by ≥1” value (PPS, 52 weeks, all subjects) was −18.49(−38.82, 4.38) %. For the same compound, the “Rate difference (C-D) % and 95% CI, Ishak score decreased by ≥1” value (PPS, 52 weeks, baseline Ishak score ≥3) was −12.91(−37.46, 13.45) %, the “Ishak score decreased by <1, n(%)” value [1] was 25(59.52) n(%) and the “Ishak score decreased by ≥1, n(%)” value [1] was 17 (40.48%) n(%) and 17(40.48) n(%). The “Hepatic fibrosis Ishak score, Mean (SD)” value [2] was 2.71(1.88), the “Hepatic fibrosis Ishak score, Median” value [2] was 2.00 and the “Ishak score 0 point, n(%)” value [2] was 3(7.14) n(%). For the same compound, the “Ishak score 1 point, n(%)” value [2] was 12(28.57) n(%), the “Ishak score 2 points, n(%)” value [2] was 8(19.05) n(%) and the “Ishak score 3 points, n(%)” value [2] was 4(9.52) n(%). For the same compound, the “Ishak score 4 points, n(%)” value [2] was 5(11.90) n(%), the “Ishak score 5 points, n(%)” value [2] was 6(14.29) n(%) and the “Ishak score 6 points, n(%)” value [2] was 4(9.52) n(%). For the same compound, the “Progressive Ishak score (increases by ≥1 compared with the baseline)” value [2] was 7 (16.67%) n(%) and 7(16.67) n(%), the “Reversed Ishak score (decreases by ≥1 point compared with the baseline)” value [2] was 17(40.48) n(%) and the “Stable Ishak score (unchanged compared with the baseline)” value [2] was 18 (42.86%) n(%) and 18(42.86) n(%). For the same compound, the “Ishak score 0 point, n(%)” value [3] was 1(4.17) n(%), the “Ishak score 1 point, n(%)” value [3] was 4(16.67) n(%) and the “Ishak score 2 points, n(%)” value [3] was 1(4.17) n(%). The “Ishak score 3 points, n(%)” value [3] was 3(12.50) n(%), the “Ishak score 4 points, n(%)” value [3] was 5(20.83) n(%) and the “Ishak score 5 points, n(%)” value [3] was 6(25.00) n(%). For the same compound, the “Ishak score 6 points, n(%)” value [3] was 4(16.67) n(%), the “Ishak score change, Baseline-52 weeks of treatment, Mean (SD)” value (“Ishak score change … (SD)” for short) [2] was 0.43(1.25) and the “Ishak score change, Baseline-52 weeks of treatment, Median” value (from here on “Ishak score change … Median”) [2] was 0.00. For the same compound, the “Ishak score decreased by <1, n(%)” value [4] was 11(45.83) n(%), the “Ishak score decreased by ≥1, n(%)” value [4] was 13(54.17) n(%) and the “Ishak score decreased by <1, n(%)” value [5] was 19(52.78) n(%). For the same compound, the “Ishak score decreased by ≥1, n(%)” value [5] was 17 (47.22%) n(%) and 17(47.22) n(%), the “Hepatic fibrosis Ishak score, Mean (SD)” value [6] was 2.67(1.88) and the “Hepatic fibrosis Ishak score, Median” value [6] was 2.00. For the same compound, the “Ishak score 0 point, n(%)” value [6] was 3(8.33) n(%), the “Ishak score 1 point, n(%)” value [6] was 11(30.56) n(%) and the “Ishak score 2 points, n(%)” value [6] was 5(13.89) n(%). The “Ishak score 3 points, n(%)” value [6] was 4(11.11) n(%), the “Ishak score 4 points, n(%)” value [6] was 5(13.89) n(%) and the “Ishak score 5 points, n(%)” value [6] was 5(13.89) n(%). For the same compound, the “Ishak score 6 points, n(%)” value [6] was 3(8.33) n(%), the “Progressive Ishak score (increases by ≥1 compared with the baseline)” value [6] was 7 (19.44%) n(%) and 7(19.44) n(%) and the “Reversed Ishak score (decreases by ≥1 point compared with the baseline)” value [6] was 17(47.22) n(%). For the same compound, the “Stable Ishak score (unchanged compared with the baseline)” value [6] was 12 (33.33%) n(%) and 12(33.33) n(%), the “Ishak score 0 point, n(%)” value [7] was 1(4.55) n(%) and the “Ishak score 1 point, n(%)” value [7] was 4(18.18) n(%). For the same compound, the “Ishak score 2 points, n(%)” value [7] was 1(4.55) n(%), the “Ishak score 3 points, n(%)” value [7] was 3(13.64) n(%) and the “Ishak score 4 points, n(%)” value [7] was 5(22.73) n(%). For the same compound, the “Ishak score 5 points, n(%)” value [7] was 5(22.73) n(%), the “Ishak score 6 points, n(%)” value [7] was 3(13.64) n(%) and the “Ishak score change … (SD)” value [6] was 0.50(1.34). For the same compound, the “Ishak score change … Median” value [6] was 0.00, the “Ishak score decreased by <1, n(%)” value [8] was 9(40.91) n(%) and the “Ishak score decreased by ≥1, n(%)” value [8] was 13(59.09) n(%). The “Ishak score decreased by ≥1, n(%)” value (270 mg group + 360 mg group, FAS, 52 weeks, baseline Ishak score = 6 (cirrhosis)) was 9(90.00) n(%), the “Ishak score decreased by ≥1, n(%)” value (270 mg group + 360 mg group, FAS, 52 weeks, baseline Ishak score ≥3 (significant fibrosis)) was 35(61.40) n(%) and the “Ishak score decreased by ≥1, n(%)” value (270 mg group + 360 mg group, FAS, 52 weeks, baseline Ishak score ≥4 (progressive fibrosis)) was 22(64.71) n(%). For the same compound, the “Ishak score decreased by ≥1, n(%)” value (270 mg group + 360 mg group, FAS, 52 weeks, baseline Ishak score ≥5 (early cirrhosis)) was 17(65.38) n(%), the “Ishak score decreased by ≥1, n(%)” value (270 mg group + 360 mg group, PPS, 52 weeks, baseline Ishak score = 6 (cirrhosis)) was 9(90.00) n(%) and the “Ishak score decreased by ≥1, n(%)” value (270 mg group + 360 mg group, PPS, 52 weeks, baseline Ishak score ≥3 (significant fibrosis)) was 35(70.00) n(%). The “Ishak score decreased by ≥1, n(%)” value (270 mg group + 360 mg group, PPS, 52 weeks, baseline Ishak score ≥4 (progressive fibrosis)) was 22(70.97) n(%), the “Ishak score decreased by ≥1, n(%)” value (270 mg group + 360 mg group, PPS, 52 weeks, baseline Ishak score ≥5 (early cirrhosis)) was 17(70.83) n(%) and the “Ishak score decreased by <1, n(%)” value [9] was 18(43.90) n(%). For the same compound, the “Ishak score decreased by ≥1, n(%)” value [9] was 23 (56.10%) n(%) and 23(56.10) n(%), the “Hepatic fibrosis Ishak score, Mean (SD)” value [10] was 2.64(1.74) and the “Hepatic fibrosis Ishak score, Median” value [10] was 2.00. For the same compound, the “Ishak score 0 point, n(%)” value [10] was 2(5.13) n(%), the “Ishak score 1 point, n(%)” value [10] was 12(30.77) n(%) and the “Ishak score 2 points, n(%)” value [10] was 7(17.95) n(%). The “Ishak score 3 points, n(%)” value [10] was 5(12.82) n(%), the “Ishak score 4 points, n(%)” value [10] was 5(12.82) n(%) and the “Ishak score 5 points, n(%)” value [10] was 6(15.38) n(%). For the same compound, the “Ishak score 6 points, n(%)” value [10] was 2(5.13) n(%), the “Progressive Ishak score (increases by ≥1 compared with the baseline)” value [10] was 4 (9.76%) n(%) and 4(9.76) n(%) and the “Reversed Ishak score (decreases by ≥1 point compared with the baseline)” value [10] was 23(56.10) n(%). For the same compound, the “Stable Ishak score (unchanged compared with the baseline)” value [10] was 14 (34.15%) n(%) and 14(34.15) n(%), the “Ishak score 0 point, n(%)” value [11] was 2(7.14) n(%) and the “Ishak score 1 point, n(%)” value [11] was 4(14.29) n(%). For the same compound, the “Ishak score 2 points, n(%)” value [11] was 4(14.29) n(%), the “Ishak score 3 points, n(%)” value [11] was 5(17.86) n(%) and the “Ishak score 4 points, n(%)” value [11] was 5(17.86) n(%). The “Ishak score 5 points, n(%)” value [11] was 6(21.43) n(%), the “Ishak score 6 points, n(%)” value [11] was 2(7.14) n(%) and the “Ishak score change … (SD)” value [10] was 0.78(1.11). The “Ishak score change … Median” value [10] was 1.00, the “Ishak score decreased by <1, n(%)” value [12] was 10(35.71) n(%) and the “Ishak score decreased by ≥1, n(%)” value [12] was 18(64.29) n(%). The “Ishak score decreased by <1, n(%)” value [13] was 12(34.29) n(%), the “Ishak score decreased by ≥1, n(%)” value [13] was 23 (65.71%) n(%) and 23(65.71) n(%) and the “Hepatic fibrosis Ishak score, Mean (SD)” value [14] was 2.60(1.77). For the same compound, the “Hepatic fibrosis Ishak score, Median” value [14] was 2.00, the “Ishak score 0 point, n(%)” value [14] was 2(5.71) n(%) and the “Ishak score 1 point, n(%)” value [14] was 11(31.43) n(%). The “Ishak score 2 points, n(%)” value [14] was 7(20.00) n(%), the “Ishak score 3 points, n(%)” value [14] was 3(8.57) n(%) and the “Ishak score 4 points, n(%)” value [14] was 5(14.29) n(%). For the same compound, the “Ishak score 5 points, n(%)” value [14] was 5(14.29) n(%), the “Ishak score 6 points, n(%)” value [14] was 2(5.71) n(%) and the “Progressive Ishak score (increases by ≥1 compared with the baseline)” value [14] was 4 (11.43%) n(%) and 4(11.43) n(%). The “Reversed Ishak score (decreases by ≥1 point compared with the baseline)” value [14] was 23(65.71) n(%), the “Stable Ishak score (unchanged compared with the baseline)” value [14] was 8 (22.86%) n(%) and 8(22.86) n(%) and the “Ishak score 0 point, n(%)” value [15] was 2(8.00) n(%). For the same compound, the “Ishak score 1 point, n(%)” value [15] was 4(16.00) n(%), the “Ishak score 2 points, n(%)” value [15] was 4(16.00) n(%) and the “Ishak score 3 points, n(%)” value [15] was 3(12.00) n(%).
